We go through 2 compounds from patent US20210255184A1, “Biosensor Device and Methods” (The New Zealand Institute for Plant and Food Research …, priority 2018, published 2021).

The target in this assay is T1, Or22a (Drosophila melanogaster, UniProt P81909).
T1 construct: his-tag; made in house; host or cells: baculovirus-infected Sf9 cells
T1 sequence (P81909 1-397): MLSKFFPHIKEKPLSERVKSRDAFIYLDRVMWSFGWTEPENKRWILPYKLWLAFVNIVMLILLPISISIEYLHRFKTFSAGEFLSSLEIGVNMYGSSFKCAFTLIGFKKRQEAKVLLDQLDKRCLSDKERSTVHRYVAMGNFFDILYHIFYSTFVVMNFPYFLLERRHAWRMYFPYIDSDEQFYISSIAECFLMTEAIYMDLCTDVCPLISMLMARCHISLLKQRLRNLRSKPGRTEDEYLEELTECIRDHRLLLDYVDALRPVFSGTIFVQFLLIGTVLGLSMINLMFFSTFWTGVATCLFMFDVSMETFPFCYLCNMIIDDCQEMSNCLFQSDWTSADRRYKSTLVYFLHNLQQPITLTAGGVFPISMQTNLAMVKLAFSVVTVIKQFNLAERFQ
Description: EIS sensor, Or22a liposomes on gold electrode. The class given is biochemical. As to the method:
Prior to their use, liposomes were defrosted on ice and then destabilized by incubating with 0.2% CHAPS for 15 min at room temperature. Then 200 μg of purified odorant receptor^28 was added to 1 mg of liposomes and rotated at 10 rpm for 1 h at room temperature. Excess detergent was removed by four additions of 25 mg of Bio-Beads SM-2 (Bio-Rad, USA) and incubation at 4° C. for 30 min, 2 h, overnight and a further 2 h respectively. The Bio-Beads were removed after each incubation period. The OrX or OrX/Orco integrated liposomes were pelleted by centrifugation at 100,000 g for 1 h, and were resuspended in 500 μL of rehydration buffer. Integration of OrXs and Orco into liposomes was assessed by density gradient ultracentrifugation (DGU) using Accudenz (Accurate Chemical & Scientific Corporation, USA). The integrated liposomes were brought to 40% Accudenz by the addition of an equal volume of 80% Accudenz solution, placed at the bottom of an ultra-centrifugation tube, and overlaid with 30% Accudenz solution, and DGU buffer (25 mM HEPES pH 7.5, 100 mM NaCl, 10% glycerol). The sample was then centrifuged at 100,000 g for 4 h at 4° C. Liposomes will float to the top of the gradient after Accudenz DGU due to their low density.
2 mM MHA was prepared by dissolving 1.36 μl of MHA in 5 ml ethanol (AR grade). The cleaned electrodes were immersed into MHA solution and incubated overnight. The next day, all the electrodes were washed with ethanol and deionised water thoroughly in order to remove the unreacted acid. A 2:1 mol:mol ratio of EDC:NHS (100 mM EDC, 50 mM NHS) was prepared in 2 ml PBS (pH=6.5) solution. Then, the electrodes were covered in 100 μl of this solution at 28° C. for an hour to activate the carboxylic (COOH) groups of the MHA.
PBS solution was prepared by immersing one tablet of PBS in 200 ml of milli-Q water (according to manufacturers instructions) and filtered using 0.2-μm syringe filter. The pH of the prepared buffer solution was measured with a pH meter. OrX liposomes or OrX/Orco liposomes were diluted 100 fold in PBS buffer solution (pH=7.4) and the COOH-activated electrodes were incubated in that buffer solution at room temperature for one hour. Then, the electrodes were washed extensively with PBS buffer solution to wash out any unbound liposomes.
PBS (pH=7.4) was used as an electrolyte to conduct electrochemical measurements. PBS buffer was degassed for about 30 minutes prior to electrochemical measurements. Odorant solutions of concentration ranging from 1 aM to 1 μM were prepared by sequential dilution in PBS solution containing 1% DMSO. OR immobilized electrodes were incubated in relevant odorant solution for ˜30 minutes each and washed gently with PBS before EIS measurements.
EIS measurements were done in a 3 electrode cell containing Ag/AgCl (3 M NaCl, 0.209 V vs. SHE) reference electrode, coiled platinum wire as a counter electrode and the gold disk as a working electrode at a fixed voltage of −0.7 using PalmSens potentiostat. Degassed PBS was used as an electrolyte.
EIS measurements were performed on gold electrodes functionalised with OrX liposomes (either Or10a or Or22a), OrX/Orco liposomes, or empty liposomes prior to and after target ligand or control ligand incubation with increasing concentrations (1 aM to 100 μM). Dose response curves were obtained by defining sensor response as −(ΔRp/R^op) versus log[C(Ligand)]. FIG. 4a presents the EIS response in terms of Nyquist plot for the Or10a liposome functionalized sensors when exposed to a solution containing one of the known target ligands of Or10a, methyl salicylate, at various concentrations. […] The dose response curve (FIG. 4b) was obtained by plotting the change in polarization resistance −(ΔRp/R^op) versus log[conc(Ligand)], as the sensor response. Here, Rp is the polarization resistance after Or10a liposome-target interaction and R^op is the polarization resistance before Or10a liposome-target interaction.

As a reminder, the EC50 is the concentration that produces a half-maximal response. Higher therefore signals a need for much substance. As for `CCCCCC(=O)OC` [methyl hexanoate], the “limit of detection (LOD)” value (EIS dose response, ligand 1 aM to 100 μM) came to 1 fM. Moreover, the EC50 was ~1 pM (Table 1, approximate) and 1.1 pM (Table 3, fitted dose response). Moreover, the Sensitivity limit (Table 1, * estimated visually from dose response graph) is reported as ~10^−15 M*. Further, for the setting “Table 3”, the “Detection Range” value is 10^−15 to 10^−5 M.

With `COC(=O)c1ccccc1O` [methyl salicylate], where the note is “EIS dose response”, the “sensor response to control ligand” value is reported as “negligible response”.
